# Data published in patent US4199579A, “Carbamates of 2-haloergolines and 2-haloergolenes and process for the preparation thereof” (priority 1975, dated 1980).
# Like-named read-outs stand apart in the source and are kept apart here.
# Legend:
# [1] = tested on: asthma; experiment: Anti-asthmatic activity (Goose, Immunology, 16, 749, 1969); type: in vivo
# Description: (§1) Coming now to examining the anti-asthmatic pharmaceutical compositions it has been ascertained that the compound described as D-2-bromo-6-methyl-8beta-(morpholinocarbolynoxymethyl)-ergoline, corresponding to the formula (4) is endowed with quite special [drawing 81] which render it particularly recommendable for the therapy of asthma. The compound of the formula (4) has the empirical formula C21 H26 N3 O3 Br and a mol. wt. of 448.38. It gives, with mineral and organic acid of nontoxic and pharmacologically acceptable nature, a number of salt. These are soluble in water as well as in the physiological solutions. Such are for example the maleate C25 H30 N3 O7 Br, m.p. 213° C.-216° C., or the methanesulfonate C22 H30 N3 O6 BrS, m.p. 265° C.-266° C. and can be prepared according to the conventional methods by treating the compound (4) with the equivalent quantities of the acid in an aqueous medium or in appropriate organic solvents and their mixtures such as the alcohols, the ethers, the lower aliphatic ketones and others, taken individually or in appropriate mixtures with each other as will be detailed in the Examples hereinafter. The pharmacological activity of the compound of formula (4) is unfolded in appropriate assays, carried out on the test animals and is especially conspicuous in the following test runs:
# Goose, Sodium ED100 5 mg/kg intrav.
# [2] = tested on: alpha-adrenergic receptors; experiment: Antiadrenalic activity in vivo (b): protection of rats from the lethal effect of adrenaline; set-up: species or system rat; conditions: e.v.; Table 2
# [3] = Acute toxicity in mice; type: in vivo, mouse; conditions: mouse, in vivo, mouse
# Description: |Toxicity LD50 mice orally
# [4] = tested on: isolated ileum of guinea pig; experiment: AntiBaCl2 activity in vitro (c): antagonism of the spasmogenic action of barium chloride on the isolated ileum; type: cell-based; conditions: Cavia porcellus, read-out: AntiBaCl2 (c) vitro EC50
# Experimental: (c) Magnus, Pflugers Arch.Ges.Physiol. 102, 123 (1904)
# The substance antagonizes the spasmogenic action of the barium chloride on the isolated ileum of guinea pig at dosages of between 1 and 5 μg/ml. […] On the isolated caudal arteria of rat, the compound II inhibits the vaso-constricting effect as caused by the perfusion with hyperpotassium Ringer's solution.
# [5] = tested on: Myorelaxing activity; experiment: Myorelaxing activity; type: in vivo
# Description: as §1, with “runs: […]” for “runs:”
# [6] = tested on: alpha-adrenergic receptors; experiment: Antiadrenalic (antiadrenergic) activity in vitro (a): antagonism of the spasmogenic effect of adrenaline on the seminal vesicle; type: cell-based, guinea pig
# Description: More particularly the novel compounds display a vasodilatory activity on the peripheral circulatory system, an hypotensive activity and a spasmolytic effect on the gastrointestinal smooth muscles or a blocking activity towards the alpha-adrenergic receptors, both in "vitro" and in "vivo".
# (a) J. Brugger, Helv. Physiol. Pharmacol. Acta 3, 117 (1945)
# The product is antagonizing the spasmogenic effect of the adrenaline on the seminal vesicle of guinea pig at concentrations of between 0.1 and 10 pg/ml, as well as the vaso- constricting effect of the noradrenaline on the isolated and perfused caudal arteria of rat, at dosages of between 1 and 10 μg total. Furthermore it antagonizes the contracturing effect of adrenaline and noradrenaline on the "vas deferens" of guinea pig and rat, at concentrations of 0.1 to 10 ng/ml.
# [7] = tested on: adrenergic activity; experiment: Adrenergic activity of compound (4) in vitro; type: cell-based
# Description: All of these activities of an accessorial nature which unfold themselves at dosages which are considerably higher than those which cause the antiasthmatic effect, should be regarded as favorable factors in the sense that they improve the pharmacological pattern of the product, so that a possible therapeutic use of the product for patients suffering from asthma, […], can be forecast.
# [8] = tested on: Antidepressant activity; experiment: Antidepressant activity; type: in vivo
# Description: as §1, with “runs: […]” for “runs:”
# [9] = tested on: asthma; conditions: pharmacological aspect; cited from earlier work
SMILES,dosage level of anti-asthmatic action compared with sodium chromoglycate ([1]; by the oral route),activity against asthmatic seizures in words ([1]; in vivo),"ED100 ([1]; po, orally)",Antiadrenalic activity (b) vivo ED50 [2],"LD50 ([3]; iv, e.v., Table 2, read-out: DL50 e.v. in the mouse)","LD50 ([3]; iv, mice, intrav., compound (4), read-out: Toxicity LD50 mice intrav.)","LD50 ([3]; po, mice, orally, compound (4), read-out: Toxicity LD50 mice orally)","selectivity ratio ([3]; margin of safety, read-out: multiple of the therapeutic dosage beyond which toxic effects become apparent)",EC50 [4],ED100 ([5]; route not given),myorelaxing activity in words ([5]; versus phenobarbital),Antiadrenalic activity (a) vitro EC50 [6],adrenergic activity in vitro [7],"ED100 ([8]; po, orally)",antidepressant activity in words ([8]; versus imipramine),"ED100 ([1]; iv, intrav.)",route by which the anti-asthmatic activity is manifested [9]
"CN1C[C@H](COC(=O)N2CCOCC2)C[C@@H]2c3cccc4[nH]c(Br)c(c34)C[C@H]21 [Example 16, D-2-bromo-6-methyl-8beta-(morpholinocarbonyloxymethyl)-ergoline]",considerably lower dosage levels,both selectivity and a powerful activity against asthmatic seizures,0.25 mg/kg,0.0419 mg/kg,20.5 mg/kg,18 to 22 mg/kg,180 mg/kg,> 1000,7.5 µg/mL,100 mg/kg,remarkable myorelaxing activity which is comparable to that of phenobarbital,0.0058 µg/mL,powerful adrenergic activity,5 mg/kg,considerable antidepressant activity which can be compared to that of imipramine,–,–
"O=C(O)c1cc(=O)c2c(OCC(O)COc3cccc4oc(C(=O)O)cc(=O)c34)cccc2o1 [Sodium chromoglycate, reference compound]",–,–,–,–,–,–,–,–,–,–,–,–,–,–,–,5 mg/kg,"manifested only by the parentheral administration (intravenously), and, in man by inhalation of the dispersed powder"
